Calls of active or inactive are those of the source. The calls are words filed in the database; no cut-off is given here.
Legend:
Assay type in all cases: cell-based
[1] = molecular target: T1, Nuclear factor erythroid 2-related factor 2 (Homo sapiens) (UniProt Q16236); test: Activation of Nrf2 in human DLD1 cells assessed as increase of NQO1 protein level at 20 uM after 48 hrs by Western blot analysis; details: DLD-1
T1 sequence (whole entry): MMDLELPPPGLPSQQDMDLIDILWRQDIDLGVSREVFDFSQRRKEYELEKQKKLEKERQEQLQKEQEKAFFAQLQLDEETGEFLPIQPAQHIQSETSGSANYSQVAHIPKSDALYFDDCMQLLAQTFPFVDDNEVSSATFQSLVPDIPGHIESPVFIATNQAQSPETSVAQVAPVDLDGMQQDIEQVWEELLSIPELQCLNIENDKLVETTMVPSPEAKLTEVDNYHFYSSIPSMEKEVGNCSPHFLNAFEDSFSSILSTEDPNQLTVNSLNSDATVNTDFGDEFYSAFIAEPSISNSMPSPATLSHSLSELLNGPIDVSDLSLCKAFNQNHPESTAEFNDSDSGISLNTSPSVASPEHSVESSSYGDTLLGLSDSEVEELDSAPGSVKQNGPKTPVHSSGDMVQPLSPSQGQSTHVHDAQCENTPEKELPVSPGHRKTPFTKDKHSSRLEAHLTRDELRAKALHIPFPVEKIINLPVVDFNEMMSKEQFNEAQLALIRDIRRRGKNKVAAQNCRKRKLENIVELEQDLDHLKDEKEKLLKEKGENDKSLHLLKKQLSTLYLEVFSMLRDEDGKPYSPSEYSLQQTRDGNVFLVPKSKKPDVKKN

[2] = molecular target: T1, Nuclear factor erythroid 2-related factor 2 (Homo sapiens); test: Activation of Nrf2 in human DLD1 cells after 24 to 48 hrs by luciferase reporter gene assay; details: DLD-1
[3] = molecular target: T1, Nuclear factor erythroid 2-related factor 2 (Homo sapiens); test: Activation of Nrf2 in human DLD1 cells assessed as stabilization of Nrf2 protein at 20 uM after 48 hrs by Western blot analysis; details: DLD-1
[4] = molecular target: Kelch-like ECH-associated protein 1 (Homo sapiens) (UniProt Q14145); test: Binding affinity to human recombinant Kelch-DC domain of Keap1 (321 to 609) expressed in HEK293T cells assessed as covalent adduct formation with cysteines at 1 mM after 15 hrs by 2D-FIDA assay; details: HEK-293T
Chain of Kelch-like ECH-associated protein 1 (Homo sapiens) (Q14145 whole entry, the tested form may be a part): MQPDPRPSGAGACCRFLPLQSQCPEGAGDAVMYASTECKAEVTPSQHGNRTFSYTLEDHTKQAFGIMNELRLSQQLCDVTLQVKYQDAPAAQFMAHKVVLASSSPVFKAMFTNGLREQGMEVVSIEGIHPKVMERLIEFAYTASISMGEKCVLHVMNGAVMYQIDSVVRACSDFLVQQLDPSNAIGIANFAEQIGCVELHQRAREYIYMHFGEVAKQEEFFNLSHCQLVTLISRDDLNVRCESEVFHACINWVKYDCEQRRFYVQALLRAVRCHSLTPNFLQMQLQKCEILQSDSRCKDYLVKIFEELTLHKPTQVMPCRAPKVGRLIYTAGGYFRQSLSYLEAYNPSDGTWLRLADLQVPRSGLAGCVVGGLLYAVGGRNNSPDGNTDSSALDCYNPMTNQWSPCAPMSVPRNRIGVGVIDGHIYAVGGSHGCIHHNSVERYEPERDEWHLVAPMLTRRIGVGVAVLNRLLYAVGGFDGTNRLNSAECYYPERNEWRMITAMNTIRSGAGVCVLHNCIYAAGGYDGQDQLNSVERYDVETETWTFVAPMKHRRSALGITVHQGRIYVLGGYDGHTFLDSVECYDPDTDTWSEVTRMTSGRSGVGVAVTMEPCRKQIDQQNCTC

Activity [1]	Activity [2]	Activity [3]	Activity [4]	Compound
Active	Dose-dependent effect	Active	Active	COC(=O)/C=C/C(=O)OC
–	Dose-dependent effect	–	–	COC(=O)/C=C/C(=O)O
Active	Dose-dependent effect	Active	inactive	COc1ccc(S(=O)(=O)Nc2ccc(NS(=O)(=O)c3ccc(OC)cc3)c3ccccc23)cc1
